Source: US12084462B2, “Spiro bicyclic inhibitors of menin-MLL interaction” (Janssen Pharmaceutica NV, priority 2016, dated 2024)
Values joined by “and” are separate entries in the source; they are usually repeats but may differ in a detail not shown here. Equal values may be shown once. Read-outs that look alike come from different tables or passages of the source.

Legend:
menin = biological target: T1, menin (Homo sapiens, UniProt O00255, T541A); assay: Menin/MLL fluorescence polarization (FP) assay; assay type: binding
T1 sequence (O00255 with tags, fused parts or gaps T541A): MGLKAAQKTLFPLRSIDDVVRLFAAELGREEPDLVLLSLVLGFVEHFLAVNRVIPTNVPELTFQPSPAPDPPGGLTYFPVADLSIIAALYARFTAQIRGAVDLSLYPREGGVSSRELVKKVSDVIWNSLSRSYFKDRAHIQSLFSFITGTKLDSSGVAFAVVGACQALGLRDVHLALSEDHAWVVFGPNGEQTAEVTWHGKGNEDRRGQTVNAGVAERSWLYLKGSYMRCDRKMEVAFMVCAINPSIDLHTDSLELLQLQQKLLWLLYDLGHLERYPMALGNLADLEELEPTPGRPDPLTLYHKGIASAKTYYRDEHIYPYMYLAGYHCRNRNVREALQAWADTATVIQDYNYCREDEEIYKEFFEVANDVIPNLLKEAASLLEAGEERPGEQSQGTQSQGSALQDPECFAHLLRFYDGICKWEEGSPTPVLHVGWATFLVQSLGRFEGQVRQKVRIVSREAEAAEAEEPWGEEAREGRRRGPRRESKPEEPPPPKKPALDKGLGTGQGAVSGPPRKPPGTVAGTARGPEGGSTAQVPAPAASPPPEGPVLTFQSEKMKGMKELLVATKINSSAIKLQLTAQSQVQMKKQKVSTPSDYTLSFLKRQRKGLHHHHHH
Description: 1) Menin/MLL Fluorescence Polarization Assay
To a non-surface binding, black 384-well microtiter plate was added 50 nL 160× test compound in DMSO and 4 μL 2× menin in assay buffer (40 mM Tris·HCl, pH 7.5, 50 mM NaCl, 1 mM DTT and 0.001% Tween 20). After incubation of test compound and menin for 10 min at ambient temperature, 4 μL 2×FITC-MBM1 peptide (FITC-β-alanine-SARWRFPARPGT-NH2 (SEQ ID NO: 2)) in assay buffer was added, the microtiter plate centrifuged at 1000 rpm for 1 min and the assay mixtures incubated for 15 min at ambient temperature. The relative amount of menin·FITC-MBM1 complex present in an assay mixture is determined by measuring the fluorescence polarization (FP) of the FITC label with a BMG Pherastar plate reader (ex. 485 nm/em. 520 nm) at ambient temperature. The final concentrations of reagents in the binding assay are 100 nM menin, 5 nM FITC-MBM1 peptide and 0.625% DMSO in assay buffer. Dose-response titrations of test compounds are conducted using an 11 point, three-fold serial dilution scheme, starting at 31 μM.
Compound potencies were determined by first calculating % inhibition at each compound concentration according to equation 1: % inhibition=((HC−LC)−(FP^compound−LC))/(HC−LC))*100 (Eqn 1)
Where LC and HC are the FP values of the assay in the presence or absence of a saturating concentration of a compound that competes with FITC-MBM1 for binding to menin, and FP^compound is the measured FP value in the presence of the test compound. HC and LC FP values represent an average of at least 16 replicates per plate. […] 2) Proliferation Assay

MV-4-11 = assay: Proliferation assay (spheroid assay) MV-4-11; assay type: cell-based, human
Description: (§1) The anti-proliferative effect of menin/MLL protein/protein interaction inhibitor test compounds was assessed in human leukemia cell lines. The cell lines MV-4-11 and MOLM14 harbor MLL translocations and express the MLL fusion proteins MLL-AF4 and MLL-AF9, respectively, as well as the wildtype protein from the second allele. […] K562 and KG1 were used as a control cell lines containing two MLL wildtype alleles in order to exclude compounds that display general cytotoxic effects.
(§2) MV-4-11 and MOLM14 were cultured in RPMI-1640 (Sigma Aldrich) supplemented with 10% fetal bovine serum (HyClone), 2 mM L-glutamine (Sigma Aldrich) and 50 μg/ml gentamycin (Gibco). K562 were propagated in RPMI-1640 (Sigma Aldrich) supplemented with 20% fetal bovine serum (HyClone), 2 mM L-glutamine (Sigma Aldrich) and 50 μg/ml gentamycin (Gibco). KG1 were cultured in Iscove's MDM (Gibco) supplemented with 20% fetal bovine serum (HyClone), 2 mM L-glutamine (Sigma Aldrich) and 50 μg/ml gentamycin (Gibco).
(§3) In order to assess the anti-proliferative effects, 1,500 MV-4-11, 300 MOLM14, 750 K562 or 1,300 KG1 cells were seeded in 200 μl media per well in 96-well round bottom, ultra-low attachment plates (Costar, catalogue number 7007). Cell seeding numbers were chosen based on growth curves to ensure linear growth throughout the experiment. Test compounds were added at different concentrations and the DMSO content was normalized to 0.3%. Cells were incubated for 8 d at 37° C. and 5% CO2. Spheroid like growth was monitored in real-time by live-cell imaging (IncuCyteZOOM, Essenbio, 4× objective) acquiring one image every four hours for 8 d. Confluence (%) as a measure of spheroid size was determined using an integrated analysis tool.
(§4) In order to determine the cumulative effect of the test compounds over time, the area under the curve (AUC) in a plot of confluence against time was calculated. Confluence at the beginning of the experiment (t=0) was used as baseline for the AUC calculation.
(§5) Absolute IC50 values were calculated according to the following procedure: % Control=(AUC sample/AUC control)*100 AUC control=mean AUC of control values (cells without compound/DMSO as vehicle control)
(§6) A non-linear curve fit was applied using the least squares (ordinary) fit method to the plot of % control versus compound concentration. Based on this, the absolute IC50 value (half maximal inhibitory concentration of the test compound causing an anti-proliferative effect of 50% relative to the vehicle control) was calculated.

MOLM14 = assay: Proliferation assay (spheroid assay) MOLM14; assay type: cell-based, human
Description: as §1, §2, §3, §4, §5, §6

K562 = assay: Proliferation assay (spheroid assay) K562, control cell line; assay type: cell-based; conditions: Homo sapiens
Description: as §1, §2, §3, §4, §5, §6

KG1 = assay: Proliferation assay (spheroid assay) KG1, control cell line; assay type: cell-based; conditions: Homo sapiens, KG-1; KG1 control cell line; averaged values; read-out: Spheroid assay KG1 (IC50 (μM))
Description: as §1, §2, §3, §4, §5, §6

[1] = averaged values over all measurements, read-out: Menin FP assay (IC50 (μM))
[2] = Homo sapiens, MV4-11, MV-4-11, averaged values, read-out: Spheroid assay MV-4-11 (IC50 (μM))
[3] = Homo sapiens, MOLM-14, MOLM14, averaged values, read-out: Spheroid assay MOLM14 (IC50 (μM))
[4] = K562 control cell line, averaged values, read-out: Spheroid assay K562 (IC50 (μM))

What does the source list for `FC(F)(F)Cc1cc2c(N3CCC[C@]4(CCN(Cc5ccccc5)C4)C3)ncnc2s1` (single isomer, unassigned) [Compound 21a]?
IC50 (menin; [1]): 0.49 µM; IC50 (MV-4-11; [2]): 6.9 µM; IC50 (MOLM14; [3]): 12.1 µM; IC50 (K562; [4]): > 15 µM

For `FC(F)(F)CCN1CC2(CCN(c3ncnc4sc(CC(F)(F)F)cc34)C2)C1` [Compound 2], which IC50 (menin; [1]) is on record?
The IC50 was 0.39 µM.

What about the IC50 (MV-4-11; [2]) of the same compound?
Its IC50 is 4.9 µM.

And the IC50 (MOLM14; [3])?
The IC50 was 14.6 µM.

And the IC50 (K562; [4])?
The IC50 was over 15 µM.

`FC(F)(F)Cc1cc2c(N3CCC4(CN(Cc5ccc6nccn6c5)C4)C3)ncnc2s1` [Compound 6] was tested. Which IC50 (menin; [1]) did it give?
Its IC50 is 0.24 µM.

And the IC50 (MV-4-11; [2])?
Its IC50 is 2.4 µM.

And the IC50 (MOLM14; [3])?
Its IC50 is 10.1 µM.

What about the IC50 (K562; [4]) of the same compound?
Its IC50 is over 15 µM.

Which results are given for `CC(C)[C@@H](c1cnn(C)c1)N1CC[C@]2(CCN(c3ncnc4sc(CC(F)(F)F)cc34)C2)C1` (single isomer, unassigned) [Compound 189]?
IC50 (MV-4-11; [2]): 0.92 µM; IC50 (KG1): > 15 µM

Which results are given for `CC(C)CN1CC[C@@]2(CCN(c3ncnc4sc(CC(F)(F)F)cc34)C2)C1` [Compound 184]?
IC50 (MV-4-11; [2]): 0.97 µM; IC50 (KG1): > 15 µM

For `FC(F)(F)Cc1cc2c(N3CCC4(CCN(Cc5ccccc5)C4)CC3)ncnc2s1` [Compound 3], which IC50 (menin; [1]) is on record?
Its IC50 is 0.1 µM.

And the IC50 (MV-4-11; [2])?
Its IC50 is 3.8 µM.

And the IC50 (MOLM14; [3])?
The IC50 was 5.6 µM.

What about the IC50 (K562; [4]) of the same compound?
The IC50 was about 15 µM.

Which IC50 (menin; [1]) does the source give for `FC(F)(F)Cc1cc2c(N3CCC4(CN(Cc5ccnc(Cl)n5)C4)C3)ncnc2s1` [Compound 15] here?
The IC50 was 0.57 µM.

What about the IC50 (MV-4-11; [2]) of the same compound?
The IC50 was 14 µM.

And the IC50 (MOLM14; [3])?
Its IC50 is over 15 µM.

And the IC50 (K562; [4])?
The IC50 was over 15 µM.

Which IC50 (MV-4-11; [2]) does the source give for `CC(CN1CC2(CCN(c3ncnc4sc(CC(F)(F)F)cc34)C2)C1)c1ccc(F)cc1` (stereo not shown) [Compound 317] here?
Its IC50 is 0.77 µM.

And the IC50 (KG1)?
Its IC50 is over 15 µM.

`O=C([C@@H]1CC2(CC2)CN1)N1CC2(C1)CN(c1ncnc3sc(CC(F)(F)F)cc13)C2` [Compound 87] was tested. Which IC50 (menin; 100 nM menin, 5 nM FITC-MBM1 peptide, individual measurements (not averaged), read-out: (1) Menin FP assay (IC50 (μM))) did it give?
The IC50 was 0.048 µM.

And the IC50 (MV-4-11; MV-4-11 (MLL-AF4), 8 d, absolute IC50 from AUC of confluence, individual measurements (not averaged), read-out: (2) Spheroid assay MV-4-11 (IC50 (μM)))?
The IC50 was 4.1 µM and 0.63 µM and 0.58 µM and 0.68 µM and 0.52 µM.

What about the IC50 (MOLM14; MOLM14 (MLL-AF9), 8 d, absolute IC50 from AUC of confluence, individual measurements (not averaged), read-out: (2) Spheroid assay MOLM14 (IC50 (μM))) of the same compound?
Its IC50 is 8 µM and 2.8 µM and 4.6 µM.

What about the IC50 (K562; 192 h, K562 (MLL wildtype control), 8 d, absolute IC50 from AUC of confluence, individual measurements (not averaged), read-out: (2) Spheroid assay K562 (IC50 (μM))) of the same compound?
The IC50 was over 15 µM.

What does the source list for `FC(F)(F)Cc1cc2c(N3CCC4(CN(Cc5cn6ccccc6n5)C4)C3)ncnc2s1` [Compound 5]?
IC50 (menin; [1]): 0.67 µM; IC50 (MV-4-11; [2]): 6.4 µM; IC50 (MOLM14; [3]): 30.6 µM; IC50 (K562; [4]): > 15 µM

`CC(c1cnn(C)c1)N1CC2(CCN(c3ncnc4sc(CC(F)(F)F)cc34)C2)C1` (stereo not shown) [Compound 197] was tested. Which IC50 (menin; [1]) did it give?
Its IC50 is 0.3 µM.

And the IC50 (MV-4-11; [2])?
The IC50 was 7.3 µM.

And the IC50 (MOLM14; [3])?
The IC50 was over 15 µM.

What does the source list for `Cn1cc(CN2CC3(CCN(c4ncnc5sc(CC(F)(F)F)cc45)C3)C2)cn1` [Compound 30]?
IC50 (menin; [1]): 0.53 µM; IC50 (MV-4-11; [2]): 9.2 µM; IC50 (MOLM14; [3]): > 15 µM

For `FC(F)(F)Cc1cc2c(N3CC4(CN(Cc5ccccc5)C4)C3)ncnc2s1` [Compound 14], which IC50 (menin; [1]) is on record?
The IC50 was 0.11 µM.

And the IC50 (MV-4-11; [2])?
Its IC50 is 2.2 µM.

And the IC50 (MOLM14; [3])?
The IC50 was 4.9 µM.
